Patent EP1102746B1, “SUBSTITUTED PHENYLAMIDINES WITH ANTITHROMBOTIC ACTION” (Boehringer Ingelheim Pharma GmbH & Co.KG, priority 1998, dated 2000)

Assay: Plasma concentration of Verbindung A after oral administration to rhesus monkeys (determined by 3H-BIBU 52 ligand displacement on human platelets against a calibration curve)
Assay type: in vivo, Rhesusaffen
Settings: rhesus monkey, oral 1 mg/kg, Rhesusaffe, concentration of Verbindung A measured
Procedure: Beispielsweise wurde die Konzentration der Verbindung A nach oraler Gabe der Verbindungen der Beispiele 1 (Verbindung B) und 1(1) (Verbindung C) der vorliegenden Erfindung im Plasma bestimmt und mit der Plasmakonzentration der Verbindung A nach oraler Gabe der Verbindung A verglichen.
Nach oraler Gabe von 1 mg/kg der zu untersuchenden Verbindungen am Rhesusaffen wird die Konzentration der Verbindung A im Plasma 4, 8, 12 und 24 Stunden nach Substanzgabe gemessen. Hierzu wird das Rhesusplasma mit einer Suspension von Humanthrombozyten in Plasma und ^3H-BIBU 52 (siehe DE-A-4,214,245) als Ligand inkubiert. Der freie und gebundene Ligand wird durch Zentrifugation getrennt und durch Szintillationszählung quantitativ bestimmt. Aus der Menge des gebundenen Liganden wird anhand einer Eichkurve die Konzentration der Verbindung A errechnet.
Dazu wird aus einer Antikubitalvene Spenderblut entnommen und mit Trinatriumzitrat antikoaguliert (Endkonzentration: 13 mMol/l). Das Blut wird 10 Minuten bei 170 x g zentrifugiert und das überstehende plättchenreiche Plasma (PRP) abgenommen. Das Restblut wird noch einmal bei 3200 x g scharf abzentrifugiert und das überstehende plättchenarme Plasma (PPP) abgenommen.
Für die Eichkurve zur Berechnung der Konzentration wird zu 995 µl PPP 5 µl Lösung der Verbindung A zugesetzt (Endkonzentration 5000 nMol/l). Aus dieser Plasmaprobe werden mit PPP weitere Plasmaproben verdünnt bis zu einer Endkonzentration von 2,5 nMol/l.
Zu 150 µl Plasmaprobe vom Rhesusaffen oder Eichkurvenplasma werden 10 µl ^3H-BIBU 52 (Endkonzentration 10 nMol/l), 10 µl ^14C-Sucrose (370 Bq) und 80 µl PRP gegeben und bei Raumtemperatur 20 Minuten inkubiert. Anschließend werden die Proben 5 Minuten bei 2000 x g zentrifugiert und der Überstand abgezogen. 100 µl des Überstandes werden versetzt mit 100 µl NaOH 0,2 Mol/l, 15 µl HCl 5 Mol/l und 2 ml Szintillator und die ^3H- und ^14C-Radioaktivität quantitativ gemessen. Das Pellet wird in 200 µl NaOH 0,2 Mol/l gelöst. 180 µl davon werden versetzt mit 15 µl HCl 5 Mol/l und 2 ml Szintillator und die ^3H- und ^14C-Radioaktivität gemessen. Das im Pellet noch verbliebene Restplasma wird aus dem ^14C-Gehalt bestimmt und abgezogen. Die Menge des gebundenen Liganden wird aus dem ^3H-Gehalt bestimmt. Die Menge des gebundenen Liganden wird gegen die Konzentration des Eichkurvenplasmas aufgetragen. Die Konzentration der Verbindung A im Rhesusplasma wird aus der Menge des gebundenen Liganden in der betreffenden Plasmaprobe im Vergleich mit der Eichkurve errechnet.
Die nachfolgende Tabelle enthält die gefundenen Werte: […]

Q: What does the source list for N=C(N)c1ccc(NC(=O)CCC2CCN(CC(=O)O)CC2)cc1 [Verbindung A, 4-[2-[(4-Amidinophenyl)aminocarbonyl]ethyl]-1-carboxymethyl-piperidin]?
A: concentration at 4 h (4 h after dosing, read-out: Konz. von A in [nM], 4h): 174 nM; concentration at 8 h (8 h after dosing, read-out: Konz. von A in [nM], 8h): 38 nM; concentration at 12 h (12 h after dosing, read-out: Konz. von A in [nM], 12h): 25 nM; concentration at 24 h (24 h after dosing, read-out: Konz. von A in [nM], 24h): 3 nM
